Data as given in ChEMBL document CHEMBL5360664, “Design, Construction, and Screening of Diversified Pyrimidine-Focused DNA-Encoded Libraries” (ACS Med Chem Lett, 2023).

Assays:
[1] = target: T1, Bromodomain-containing protein 4 (Homo sapiens, UniProt O60885); assay: Binding affinity to human recombinant BRD4BD2 (333 to 460 residues) expressed in Escherichia coli […] (DE3) by fluorescence polarization analysis
[2] = target: T1, Bromodomain-containing protein 4; assay: Binding affinity to human recombinant BRD4BD1 (44 to 168 residues) expressed in Escherichia coli […] (DE3) by fluorescence polarization analysis

| Compound | Ki [1] [nM] | Ki [2] [nM] |
| --- | --- | --- |
| CNc1cc(-c2ccc(=O)n(C)c2)nc(NCc2ccc(OC(F)(F)F)cc2)n1 | > 100000 | 760 |
| CNc1cc(-c2ccc(=O)n(C)c2)nc(NCc2cccc3ccccc23)n1 | > 100000 | 680 |
| CNc1nc(NCc2cccc(-c3ccc(=O)n(C)c3)c2)cc(-c2ccc(=O)n(C)c2)n1 | 1440 | 910 |
